In PubChem BioAssay (NCI):
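Cultured in 96-well plates, cells were exposed to test compound for 48 hours across five concentrations. TGI marks complete inhibition of growth.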

How the values were obtained:
Experiment in all cases: growth of human tumour cells (NCI), 48 h
[1] = system: 786-0 renal
[2] = system: A498 renal
[3] = system: A549 NSCLC
[4] = system: ACHN renal
[5] = system: BT-549 breast
[6] = system: CAKI-1 renal
[7] = system: CCRF-CEM leukemia
[8] = system: COLO 205 colon
[9] = system: DU-145 prostate
[10] = system: EKVX NSCLC
[11] = system: HCC-2998 colon
[12] = system: HCT-116 colon
[13] = system: HCT-15 colon
[14] = system: HOP-62 NSCLC
[15] = system: HT29 colon
[16] = system: K-562 leukemia
[17] = system: KM12 colon
[18] = system: M14 melanoma
[19] = system: MALME-3M melanoma
[20] = system: MCF7 breast
[21] = system: MDA-MB-231 breast
[22] = system: MDA-MB-435
[23] = system: MDA-N
[24] = system: MOLT-4 leukemia
[25] = system: NCI-H226 lung
[26] = system: NCI-H23 lung
[27] = system: NCI-H460 lung
[28] = system: NCI/ADR-RES ovarian
[29] = system: OVCAR-3 ovarian
[30] = system: OVCAR-4 ovarian
[31] = system: OVCAR-5 ovarian
[32] = system: OVCAR-8 ovarian
[33] = system: PC-3 prostate
[34] = system: RPMI-8226 leukemia
[35] = system: RXF 393 renal
[36] = system: SF-268 CNS
[37] = system: SF-295 CNS
[38] = system: SF-539 CNS
[39] = system: SK-MEL-2 melanoma
[40] = system: SK-MEL-28 melanoma
[41] = system: SK-OV-3 ovarian
[42] = system: SN12C renal
[43] = system: SNB-19 CNS
[44] = system: SNB-75 CNS
[45] = system: SW-620 colon
[46] = system: T-47D breast
[47] = system: U251 CNS
[48] = system: UACC-257 melanoma
[49] = system: UACC-62 melanoma
[50] = system: UO-31 renal
[51] = system: HL-60(TB) leukemia
[52] = system: HOP-92 NSCLC
[53] = system: IGROV1 ovarian
[54] = system: LOX IMVI melanoma
[55] = system: NCI-H522 lung
[56] = system: SK-MEL-5 melanoma
[57] = system: SR leukemia
[58] = system: TK-10 renal

Compound: CC(C)(C)OC/C=C(\Br)CO
- TGI [1]: > 100 µM
- TGI [2]: > 100 µM
- TGI [3]: > 100 µM
- TGI [4]: > 100 µM
- TGI [5]: > 100 µM
- TGI [6]: > 100 µM
- TGI [7]: > 100 µM
- TGI [8]: > 100 µM
- TGI [9]: > 100 µM
- TGI [10]: > 100 µM
- TGI [11]: > 100 µM
- TGI [12]: > 100 µM
- TGI [13]: > 100 µM
- TGI [14]: > 100 µM
- TGI [15]: > 100 µM
- TGI [16]: > 100 µM
- TGI [17]: > 100 µM
- TGI [18]: > 100 µM
- TGI [19]: > 100 µM
- TGI [20]: > 100 µM
- TGI [21]: > 100 µM
- TGI [22]: > 100 µM
- TGI [23]: > 100 µM
- TGI [24]: > 100 µM
- TGI [25]: > 100 µM
- TGI [26]: > 100 µM
- TGI [27]: > 100 µM
- TGI [28]: > 100 µM
- TGI [29]: > 100 µM
- TGI [30]: > 100 µM
- TGI [31]: > 100 µM
- TGI [32]: > 100 µM
- TGI [33]: > 100 µM
- TGI [34]: > 100 µM
- TGI [35]: > 100 µM
- TGI [36]: > 100 µM
- TGI [37]: > 100 µM
- TGI [38]: > 100 µM
- TGI [39]: > 100 µM
- TGI [40]: > 100 µM
- TGI [41]: > 100 µM
- TGI [42]: > 100 µM
- TGI [43]: > 100 µM
- TGI [44]: > 100 µM
- TGI [45]: > 100 µM
- TGI [46]: > 100 µM
- TGI [47]: > 100 µM
- TGI [48]: > 100 µM
- TGI [49]: > 100 µM
- TGI [50]: > 100 µM

Compound: COc1ccc(N[C@H]([C@@H](c2ccccc2)S(=O)c2ccc(C)cc2)C(F)(F)F)cc1 (some centres undefined)
- TGI [1]: > 100 µM
- TGI [3]: > 100 µM
- TGI [4]: > 100 µM
- TGI [5]: > 100 µM
- TGI [6]: > 100 µM
- TGI [7]: 66.6 µM
- TGI [8]: > 100 µM
- TGI [9]: > 100 µM
- TGI [10]: > 100 µM
- TGI [11]: > 100 µM
- TGI [12]: > 100 µM
- TGI [13]: > 100 µM
- TGI [51]: 73.7 µM
- TGI [52]: > 100 µM
- TGI [15]: > 100 µM
- TGI [53]: > 100 µM
- TGI [16]: > 100 µM
- TGI [17]: > 100 µM
- TGI [54]: > 100 µM
- TGI [18]: > 100 µM
- TGI [19]: > 100 µM
- TGI [20]: > 100 µM
- TGI [21]: > 100 µM
- TGI [22]: > 100 µM
- TGI [23]: > 100 µM
- TGI [24]: > 100 µM
- TGI [25]: > 100 µM
- TGI [26]: > 100 µM
- TGI [27]: > 100 µM
- TGI [55]: > 100 µM
- TGI [28]: > 100 µM
- TGI [29]: > 100 µM
- TGI [30]: 79.5 µM
- TGI [31]: > 100 µM
- TGI [32]: > 100 µM
- TGI [33]: > 100 µM
- TGI [35]: > 100 µM
- TGI [37]: > 100 µM
- TGI [38]: 63.2 µM
- TGI [39]: > 100 µM
- TGI [40]: > 100 µM
- TGI [56]: > 100 µM
- TGI [41]: > 100 µM
- TGI [42]: > 100 µM
- TGI [43]: > 100 µM
- TGI [44]: > 100 µM
- TGI [57]: > 100 µM
- TGI [45]: > 100 µM
- TGI [46]: > 100 µM
- TGI [58]: > 100 µM
- TGI [47]: 50.2 µM
- TGI [48]: > 100 µM
- TGI [49]: > 100 µM
- TGI [50]: > 100 µM
